Measured values reported in US20240317756A1, “INHIBITORS OF BRUTON'S TYROSINE KINASE” (Pharmacyclics LLC, priority 2006, published 2024).
pIC50: −log10 of the molar value.

Tests used:
[1] = molecular target: BTK (Homo sapiens (Human), UniProt Q06187); assay: in vitro HotSpot kinase assay, BTK; format: biochemical; details: Table 2, 1 uM ATP, one hour incubation with inhibitor
[2] = glutathione binding assay; details: 5 mM glutathione, 10 μM Btk inhibitor, room temperature, HPLC
Procedure: A calculated value (e.g (1/Btk IC50)/Glutathione conjugation rate) as shown in the Table 2) is used to compare compounds for their ratio between potency at inhibiting their target and their non-specific binding to other SH groups, such as those in glutathione. […] Calculated ratios such as these are used to quantitatively compare different compounds and select compounds for further study.
For the glutathione binding assays, 5 mM glutathione, 10 μM Btk inhibitor in DMSO (10 μL) and 6 equivalents of N′N′ Diisopropyl ethyl amine were combined in 1 mL potassium phosphate buffer. The mixture was incubated for 0, 15, 60 minutes at room temperature and the reaction was stopped with 10 equivalents of formic acid. 50 μL of each reaction mixture was injected on HPLC (Mobil Phase A: 0.2% formic acid in water, Mobile Phase B: 0.2% formic acid in acetonitrile, HPLC Column: Metasil Basic 3μ, 150×4.6 mm, 10% B, Gradient: 10% to 90% B, Detection: UV/Vis […]). Rate of reaction was reported as nmole GSH conjugate conversion per minute from the normalized ratio for area under the curve from HPLC chromatograms for both GSH conjugate and the parent.

[3] = molecular target: EGFR (Homo sapiens (Human), UniProt P00533); assay: in vitro HotSpot kinase assay, EGFR; format: biochemical; details: Table 2, 1 uM ATP, one hour incubation with inhibitor
[4] = molecular target: JAK3 (Homo sapiens (Human), UniProt P52333); assay: in vitro HotSpot kinase assay, JAK3; format: biochemical; details: Table 2, 1 uM ATP, one hour incubation with inhibitor
Sequence of JAK3 (P52333 whole entry, species assumed): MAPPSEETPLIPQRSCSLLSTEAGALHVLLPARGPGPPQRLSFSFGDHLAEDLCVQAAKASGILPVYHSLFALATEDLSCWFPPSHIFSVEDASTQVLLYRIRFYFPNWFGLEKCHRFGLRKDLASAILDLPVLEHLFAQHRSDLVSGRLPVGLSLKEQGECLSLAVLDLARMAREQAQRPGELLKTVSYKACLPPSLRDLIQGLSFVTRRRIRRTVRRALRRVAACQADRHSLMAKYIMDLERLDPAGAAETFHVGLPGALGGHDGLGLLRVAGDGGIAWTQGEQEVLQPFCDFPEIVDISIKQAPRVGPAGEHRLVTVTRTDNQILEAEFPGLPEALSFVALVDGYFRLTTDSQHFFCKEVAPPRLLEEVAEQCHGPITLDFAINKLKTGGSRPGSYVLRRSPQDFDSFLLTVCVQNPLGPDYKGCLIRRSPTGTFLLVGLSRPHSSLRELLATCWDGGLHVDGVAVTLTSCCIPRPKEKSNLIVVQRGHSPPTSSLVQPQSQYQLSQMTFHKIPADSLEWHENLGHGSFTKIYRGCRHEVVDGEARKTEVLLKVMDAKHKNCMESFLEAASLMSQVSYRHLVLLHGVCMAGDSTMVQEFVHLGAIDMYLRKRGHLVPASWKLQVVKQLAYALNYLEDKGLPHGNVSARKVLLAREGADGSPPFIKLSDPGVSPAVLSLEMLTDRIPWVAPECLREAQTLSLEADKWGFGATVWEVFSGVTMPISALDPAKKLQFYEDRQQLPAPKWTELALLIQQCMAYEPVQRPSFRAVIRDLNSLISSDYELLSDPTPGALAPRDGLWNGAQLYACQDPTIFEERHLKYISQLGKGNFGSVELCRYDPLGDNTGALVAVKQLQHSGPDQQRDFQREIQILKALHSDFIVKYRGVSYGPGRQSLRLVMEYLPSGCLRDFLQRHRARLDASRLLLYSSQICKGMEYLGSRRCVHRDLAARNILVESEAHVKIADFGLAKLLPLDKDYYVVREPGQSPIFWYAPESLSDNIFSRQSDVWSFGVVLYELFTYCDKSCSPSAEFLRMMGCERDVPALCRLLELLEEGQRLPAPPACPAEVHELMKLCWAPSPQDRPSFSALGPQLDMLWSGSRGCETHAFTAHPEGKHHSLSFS

[5] = molecular target: ITK (Homo sapiens (Human), UniProt Q08881); assay: in vitro HotSpot kinase assay, ITK; format: biochemical; details: Table 2, 1 uM ATP, one hour incubation with inhibitor
Sequence of ITK (Q08881 whole entry, species assumed): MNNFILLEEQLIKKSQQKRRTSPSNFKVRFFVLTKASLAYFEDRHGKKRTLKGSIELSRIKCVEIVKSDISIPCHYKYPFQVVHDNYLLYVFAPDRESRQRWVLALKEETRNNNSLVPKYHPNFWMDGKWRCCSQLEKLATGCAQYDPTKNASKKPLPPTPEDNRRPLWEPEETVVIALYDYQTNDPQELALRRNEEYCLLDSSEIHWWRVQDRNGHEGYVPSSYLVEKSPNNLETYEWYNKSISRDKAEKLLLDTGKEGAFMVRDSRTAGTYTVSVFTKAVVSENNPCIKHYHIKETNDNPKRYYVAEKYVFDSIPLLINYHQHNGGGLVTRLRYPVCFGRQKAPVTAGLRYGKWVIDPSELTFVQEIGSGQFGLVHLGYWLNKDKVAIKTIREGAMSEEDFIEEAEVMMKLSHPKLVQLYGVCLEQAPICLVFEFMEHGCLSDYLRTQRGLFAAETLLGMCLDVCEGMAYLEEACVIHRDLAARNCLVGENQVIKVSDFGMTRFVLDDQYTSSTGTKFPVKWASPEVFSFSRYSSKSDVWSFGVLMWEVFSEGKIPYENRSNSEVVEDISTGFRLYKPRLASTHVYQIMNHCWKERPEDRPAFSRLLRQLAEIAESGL

[6] = system: lymphoma cell line DOHH2; assay: DOHH2 cell proliferation assay (Alamar Blue); format: cell-based
Procedure: After 72 hours, cell number was measured using Alamar Blue using manufacturer's protocol. A dilution series of untreated cells was run in parallel to verify that the Alamar Blue assay reliably reflected cell number and that growth conditions were not limiting. […] GI50 values were confirmed in two or more separate experiments for each cell line.
Analogs are generated that are Btk inhibitors and that are cytotoxic to the lymphoma cell line DOHH2. For the DOHH2 cell proliferation assay, cells were seeded in 96-well plates in standard growth media (RPMI+10% fetal calf serum) and compounds were added in a 9-point dilution series ranging from 10 uM to 0.04 uM with DMSO at 0.1% final concentration in all wells. After 72 hours, cell number was measured using Alamar Blue using manufacturer's protocol. A dilution series of untreated cells was run in parallel to verify that the Alamar Blue assay reliably reflected cell number and that growth conditions were not limiting.

[7] = molecular target: LCK (Homo sapiens (Human), UniProt P06239); assay: in vitro HotSpot kinase assay, LCK; format: biochemical; details: Table 2, 1 uM ATP, one hour incubation with inhibitor
Sequence of LCK (P06239 whole entry, species assumed): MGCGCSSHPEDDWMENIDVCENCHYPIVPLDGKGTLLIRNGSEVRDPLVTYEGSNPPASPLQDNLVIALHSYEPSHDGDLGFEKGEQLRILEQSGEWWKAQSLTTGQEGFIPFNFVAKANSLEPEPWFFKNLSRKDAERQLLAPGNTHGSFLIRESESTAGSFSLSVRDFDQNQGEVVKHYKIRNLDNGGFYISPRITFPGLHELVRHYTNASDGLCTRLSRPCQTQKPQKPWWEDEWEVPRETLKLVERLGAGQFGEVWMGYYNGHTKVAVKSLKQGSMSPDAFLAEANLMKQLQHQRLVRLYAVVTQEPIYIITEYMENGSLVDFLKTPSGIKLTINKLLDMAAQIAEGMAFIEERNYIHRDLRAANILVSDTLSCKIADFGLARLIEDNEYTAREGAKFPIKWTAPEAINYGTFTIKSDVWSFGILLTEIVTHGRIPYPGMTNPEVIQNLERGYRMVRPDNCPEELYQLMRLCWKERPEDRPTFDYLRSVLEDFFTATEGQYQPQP

Sequence of BTK (Q06187 whole entry): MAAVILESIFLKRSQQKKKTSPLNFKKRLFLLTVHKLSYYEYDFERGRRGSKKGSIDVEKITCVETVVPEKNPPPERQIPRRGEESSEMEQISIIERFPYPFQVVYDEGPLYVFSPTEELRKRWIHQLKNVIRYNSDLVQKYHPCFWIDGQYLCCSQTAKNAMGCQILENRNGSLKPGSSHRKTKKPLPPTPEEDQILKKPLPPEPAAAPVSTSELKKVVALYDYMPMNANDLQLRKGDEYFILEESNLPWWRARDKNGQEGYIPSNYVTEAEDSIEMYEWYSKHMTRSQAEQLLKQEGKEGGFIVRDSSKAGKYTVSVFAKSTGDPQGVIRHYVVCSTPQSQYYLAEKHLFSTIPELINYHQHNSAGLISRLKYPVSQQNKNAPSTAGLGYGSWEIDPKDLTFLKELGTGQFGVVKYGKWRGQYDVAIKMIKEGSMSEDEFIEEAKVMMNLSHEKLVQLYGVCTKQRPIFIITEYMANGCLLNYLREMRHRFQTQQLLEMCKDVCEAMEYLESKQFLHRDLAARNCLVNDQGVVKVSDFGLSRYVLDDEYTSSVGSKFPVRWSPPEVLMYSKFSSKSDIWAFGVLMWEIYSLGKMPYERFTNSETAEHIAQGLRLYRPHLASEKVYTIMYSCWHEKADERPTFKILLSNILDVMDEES

Molecule | pIC50 [1] | Glutathione Conj Rate [2] [nmol/min] | pIC50 [3] | pIC50 [4] | pIC50 [5] | GI50 ([6]; Homo sapiens, DOHH-2, 72 hours) [µM] | pIC50 [7] | GI50 ([6]; 72 hours) [µM]
Nc1ncnc2c1c(-c1ccc(Oc3ccccc3)cc1)nn2C1CCCN(C(=O)/C=C/CN2CCOCC2)C1 (stereo not drawn) [Compound 5, (E)-1-(3-(4-amino-3-(4-phenoxyphenyl)-1H-pyrazolo[3,4-d]pyrimidin-1-yl)piperidin-1-yl)-4-morpholinobut-2-en-1-one] | 8.25 | 0.004 | 6.49 |  |  |  |  | 
C=CC(=O)N1CCC(n2nc(-c3ccc(Oc4ccccc4)cc3)c3c(N)ncnc32)CC1 [Compound 6] | 8.51 | 0.39 |  |  |  |  |  | 
C=CC(=O)N[C@H]1CC[C@H](n2nc(-c3ccc(Oc4ccccc4)cc3)c3c(N)ncnc32)CC1 [Compound 10, N-((1r,4r)-4-(4-amino-3-(4-phenoxyphenyl)-1H-pyrazolo[3,4-d]pyrimidin-1-yl)cyclohexyl)acrylamide] |  |  |  | < 5.00 | 5.71 | < 0.03 |  | 
CN(C)C/C=C/C(=O)N1CCC[C@@H]1Cn1nc(-c2ccc(Oc3ccccc3)cc2)c2c(N)ncnc21 [Compound 11, (E)-1-((R)-2-((4-amino-3-(4-phenoxyphenyl)-1H-pyrazolo[3,4-d]pyrimidin-1-yl)methyl)pyrolidin-1-yl)-4-(dimethylamino)but-2-en-1-one] | 9.04 | 0.004525 | 7.72 | < 5.00 | 5.16 | > 10 | 8.61 | 
C=CC(=O)N1CCC[C@@H]1Cn1nc(-c2ccc(Oc3ccccc3)cc2)c2c(N)ncnc21 [Compound 13, 1-((R)-2-((4-amino-3-(4-phenoxyphenyl)-1H-pyrazolo[3,4-d]pyrimidin-1-yl)methyl)pyrrolidin-1-yl)prop-2-en-1-one] | 9.17 |  | 7.73 | 4.89 | 5.52 | 0.24 | 8.81 | 
C=CC(=O)N1CCC[C@H]1Cn1nc(-c2ccc(Oc3ccccc3)cc2)c2c(N)ncnc21 [Compound 14, 1-((S)-2-((4-amino-3-(4-phenoxyphenyl)-1H-pyrazolo[3,4-d]pyrimidin-1-yl)methyl)pyrrolidin-1-yl)prop-2-en-1-one] | 9.41 |  | 8.64 | 5.84 | 6.23 | 0.37 | 8.03 | 
CC#CC(=O)N1CCC[C@@H]1Cn1nc(-c2ccc(Oc3ccccc3)cc2)c2c(N)ncnc21 [Compound 15, 1((R)-2-((4-amino-3-(4-phenoxyphenyl)-1H-pyrazolo[3,4-d]pyrimidin-1-yl)methyl)pyrrolidin-1-yl)but-2-yn-1-one] | 8.38 |  | 6.54 | < 5.00 | 4.68 | 0.59 | 8.23 | 
CC#CC(=O)N1CCC[C@H]1Cn1nc(-c2ccc(Oc3ccccc3)cc2)c2c(N)ncnc21 [Compound 16, 1-((S)-2-((4-amino-3-(4-phenoxyphenyl)-1H-pyrazolo[3,4-d]pyrimidin-1-yl)methyl)pyrrolidin-1-yl)but-2-yn-1-one] | 8.50 |  | 5.55 | < 5.00 | < 5.00 | 0.21 | 8.42 | 
CC#CC(=O)N1CCC[C@@H](n2nc(-c3ccc(Oc4ccccc4)cc3)c3c(N)ncnc32)C1 [Compound 17, 1-((R)-3-(4-amino-3-(4-phenoxyphenyl)-1H-pyrazolo[3,4-d]pyrimidin-1-yl)piperidin-1-yl)but-2-yn-1-one] | 8.70 | 0.0243 | 6.36 | < 5.00 | 5.63 | 0.21 | 8.68 | 
CN(C)C/C=C/C(=O)N[C@H]1CC[C@H](n2nc(-c3ccc(Oc4ccccc4)cc3)c3c(N)ncnc32)CC1 [Compound 18] | 8.86 |  | 7.65 | < 5.00 | 5.60 |  | 9.12 | < 0.03
C=CC(=O)N(C)CCn1nc(-c2ccc(Oc3ccccc3)cc2)c2c(N)ncnc21 [Compound 19, N-(2-(4-amino-3-(4-phenoxyphenyl)-1H-pyrazolo[3,4-d]pyrimidin-1-yl)ethyl)-N-methylacrylamide] | 8.80 |  |  | 5.22 | 6.27 | 0.69 | 8.18 | 
Nc1ncnc2c1c(-c1ccc(Oc3ccccc3)cc1)nn2C1CCN(C(=O)/C=C/CN2CCOCC2)CC1 [Compound 20] | 8.39 |  | 6.52 | < 5.00 | 5.10 |  | 7.01 | 0.39
Nc1ncnc2c1c(-c1ccc(Oc3ccccc3)cc1)nn2C[C@@H]1CCCN1C(=O)/C=C/CN1CCOCC1 [Compound 21] | 8.38 |  | 5.20 | < 5.00 | < 5.00 |  | 5.87 | 1.53
CC#CC(=O)N[C@H]1CC[C@@H](n2nc(-c3ccc(Oc4ccccc4)cc3)c3c(N)ncnc32)CC1 [Compound 22, N-((1s,4s)-4-(4-amino-3-(4-phenoxyphenyl)-1H-pyrazolo[3,4-d]pyrimidin-1-yl)cyclohexyl)but-2-ynamide] | 8.80 | 0.014 | 6.81 | < 5.00 | 5.43 |  | 7.66 | < 0.04
C=CC(=O)NCCn1nc(-c2ccc(Oc3ccccc3)cc2)c2c(N)ncnc21 [Compound 23, N-(2-(4-amino-3-(4-phenoxyphenyl)-1H-pyrazolo[3,4-d]pyrimidin-1-yl)ethyl)acrylamide] | 9.49 |  | 7.15 | 5.48 | 6.08 | 0.11 | 6.68 | 
Nc1ncnc2c1c(-c1ccc(Oc3ccccc3)cc1)nn2[C@@H]1CCCN(C(=O)/C=C/CN2CCOCC2)C1 [Compound 24, (E)-1-((R)-3-(4-amino-3-(4-phenoxyphenyl)-1H-pyrazolo[3,4-d]pyrimidin-1-yl)piperidin-1-yl)-4-morpholinobut-2-en-1-one] | 9.05 |  | 6.42 | 5.04 | 6.32 | 0.44 | 6.63 | 
Nc1ncnc2c1c(-c1ccc(Oc3ccccc3)cc1)nn2[C@H]1CC[C@@H](NC(=O)/C=C/CN2CCOCC2)CC1 [Compound 25, (E)-N-((1s,4s)-4-(4-amino-3-(4-phenoxyphenyl)-1H-pyrazolo[3,4-d]pyrimidin-1-yl)cyclohexyl)-4-morpholinobut-2-enamide] | 8.46 |  | 6.56 | < 5.00 | < 5.00 |  | 7.59 | 0.05
(E)-4-(N-(2-hydroxyethyl)-N-methylamino)-1-(3-(4-phenoxyphenyl)-1H-pyrazolo[3,4-d]pyrimidin-1-yl)piperidin-1-yl)but-2-en-1-one [Compound 3] | 7.68 |  | 7.13 |  |  |  |  | 
